Key:
[1] = target: α4β7 integrin (Homo sapiens (Human), UniProt P13612+P26010); experiment: Integrin Adhesion Assay: Protocol 1 (MAdCAM-coated plate, RPMI-8866 cells, CellTiter GLO readout); assay type: cell-based; settings: integrin adhesion assay; determined by at least one of the assays described (protocol not specified)
Summary of the method: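 RPMI-8866 cells (2×10^6 per mL) added with compounds (1% DMSO) to MAdCAM-coated wells blocked in HEPES/NaCl buffer with 1 mM MnCl2, 0.1 mM CaCl2, 1% BSA; 1 h at 37° C, 5% CO2. After four washes, bound cells read by CellTiter GLO luminescence; % inhibition vs DMSO and control wells, 4-parameter fit.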

[2] = target: α4β1 integrin (Homo sapiens (Human), UniProt P05556+P13612); experiment: Integrin Adhesion Assay: Protocol 2 (VCAM-coated plate, Jurkat cells, CellTiter GLO readout); assay type: cell-based; settings: determined by at least one of the assays described (protocol not specified)
α4β1 integrin, sequence (P13612 34-1032): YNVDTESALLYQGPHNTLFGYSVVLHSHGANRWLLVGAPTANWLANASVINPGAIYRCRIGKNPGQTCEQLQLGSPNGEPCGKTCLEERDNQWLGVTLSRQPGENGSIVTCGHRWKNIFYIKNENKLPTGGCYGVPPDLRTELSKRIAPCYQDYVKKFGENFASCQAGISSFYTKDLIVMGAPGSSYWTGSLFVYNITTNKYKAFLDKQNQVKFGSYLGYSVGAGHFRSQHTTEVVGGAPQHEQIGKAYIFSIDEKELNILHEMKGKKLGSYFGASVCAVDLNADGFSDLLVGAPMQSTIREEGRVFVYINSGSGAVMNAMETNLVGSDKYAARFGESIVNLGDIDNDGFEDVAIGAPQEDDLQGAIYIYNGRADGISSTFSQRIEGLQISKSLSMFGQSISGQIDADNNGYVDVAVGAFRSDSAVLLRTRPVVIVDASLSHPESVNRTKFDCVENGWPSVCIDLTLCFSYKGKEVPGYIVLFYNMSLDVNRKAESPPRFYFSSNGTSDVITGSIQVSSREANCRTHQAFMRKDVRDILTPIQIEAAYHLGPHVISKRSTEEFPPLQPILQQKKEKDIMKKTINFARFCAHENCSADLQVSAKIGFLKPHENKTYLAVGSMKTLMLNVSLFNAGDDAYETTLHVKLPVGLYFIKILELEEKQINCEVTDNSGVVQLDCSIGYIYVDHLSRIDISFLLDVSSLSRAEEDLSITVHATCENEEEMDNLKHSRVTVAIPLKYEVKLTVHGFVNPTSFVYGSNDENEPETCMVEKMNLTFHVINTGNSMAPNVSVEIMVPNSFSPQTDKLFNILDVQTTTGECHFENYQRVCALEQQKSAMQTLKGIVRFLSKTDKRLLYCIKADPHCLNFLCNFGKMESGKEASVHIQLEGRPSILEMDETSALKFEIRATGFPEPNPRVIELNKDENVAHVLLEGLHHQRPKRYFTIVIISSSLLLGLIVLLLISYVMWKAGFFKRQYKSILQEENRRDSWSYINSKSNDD
α4β1 integrin, sequence (P05556 21-798): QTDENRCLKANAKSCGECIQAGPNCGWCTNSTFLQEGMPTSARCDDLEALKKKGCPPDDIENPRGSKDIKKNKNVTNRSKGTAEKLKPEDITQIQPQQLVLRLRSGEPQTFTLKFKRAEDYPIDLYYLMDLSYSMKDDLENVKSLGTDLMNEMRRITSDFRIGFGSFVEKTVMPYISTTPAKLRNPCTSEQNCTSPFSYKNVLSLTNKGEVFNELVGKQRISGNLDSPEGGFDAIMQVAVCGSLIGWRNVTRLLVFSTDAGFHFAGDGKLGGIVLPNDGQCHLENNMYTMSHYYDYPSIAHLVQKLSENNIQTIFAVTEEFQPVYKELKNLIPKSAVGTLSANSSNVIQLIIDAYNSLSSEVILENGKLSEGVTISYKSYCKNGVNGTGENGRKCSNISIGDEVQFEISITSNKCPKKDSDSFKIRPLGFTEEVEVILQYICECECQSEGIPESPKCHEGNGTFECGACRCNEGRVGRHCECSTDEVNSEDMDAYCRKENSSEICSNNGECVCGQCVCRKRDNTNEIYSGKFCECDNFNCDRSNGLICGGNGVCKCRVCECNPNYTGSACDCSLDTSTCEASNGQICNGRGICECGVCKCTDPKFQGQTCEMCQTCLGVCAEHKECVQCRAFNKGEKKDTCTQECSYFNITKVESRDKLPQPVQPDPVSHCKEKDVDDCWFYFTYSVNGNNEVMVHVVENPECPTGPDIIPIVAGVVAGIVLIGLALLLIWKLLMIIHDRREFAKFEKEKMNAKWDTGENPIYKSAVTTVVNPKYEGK
Method: α4β7 and α4β1 inhibition was evaluated in vitro using at least one of the following procedures:
Integrin Adhesion Assay: Protocol 2
VCAM (R&D Systems, 0.1 ug) was diluted in 50 μL PBS, added to each well of an opaque ELISA plate (Thermo), and incubated overnight at 4° C. Coated plates were washed once with PBS and then blocked with 200 μL of assay buffer (10 mM HEPES, 150 mM NaCl, 1 mM MnCl2, 0.1 mM CaCl2), 1% BSA) for 1 hour at 37° C. and 5% CO2. After incubation, buffer was aspirated from the plates and 50 μL of fresh assay buffer was added. Compounds were added by compounds dispenser (Tecan) and DMSO concentration was normalized to 1% across each plate. 50 μL of Jurkat cells (2×10^6 per mL) were added to each well and the plates were incubated for 1 hour at 37° C. and 5% CO2. After incubation, plates were allowed to cool to RT for 10 minutes before being washed four times in assay buffer by an automated plate washer (BioTek). After washing, 100 μL of a 1:1 mixture of assay buffer and CellTiter GLO 2.0 reagent (Promega) were added to each well. Plates were mixed for 2 minutes at 1000 rpm and then allowed to incubate an additional 10 minutes before reading out luminescence on a Tecan Spark plate reader. Raw data was converted to percent inhibition based on DMSO only and control compound wells, and curves were analyzed by 4-parameter fit within Dotmatics software.

α4β7 integrin, sequence (P13612 34-1032): as the sequence (P13612 34-1032) above
α4β7 integrin, sequence (P26010 20-798): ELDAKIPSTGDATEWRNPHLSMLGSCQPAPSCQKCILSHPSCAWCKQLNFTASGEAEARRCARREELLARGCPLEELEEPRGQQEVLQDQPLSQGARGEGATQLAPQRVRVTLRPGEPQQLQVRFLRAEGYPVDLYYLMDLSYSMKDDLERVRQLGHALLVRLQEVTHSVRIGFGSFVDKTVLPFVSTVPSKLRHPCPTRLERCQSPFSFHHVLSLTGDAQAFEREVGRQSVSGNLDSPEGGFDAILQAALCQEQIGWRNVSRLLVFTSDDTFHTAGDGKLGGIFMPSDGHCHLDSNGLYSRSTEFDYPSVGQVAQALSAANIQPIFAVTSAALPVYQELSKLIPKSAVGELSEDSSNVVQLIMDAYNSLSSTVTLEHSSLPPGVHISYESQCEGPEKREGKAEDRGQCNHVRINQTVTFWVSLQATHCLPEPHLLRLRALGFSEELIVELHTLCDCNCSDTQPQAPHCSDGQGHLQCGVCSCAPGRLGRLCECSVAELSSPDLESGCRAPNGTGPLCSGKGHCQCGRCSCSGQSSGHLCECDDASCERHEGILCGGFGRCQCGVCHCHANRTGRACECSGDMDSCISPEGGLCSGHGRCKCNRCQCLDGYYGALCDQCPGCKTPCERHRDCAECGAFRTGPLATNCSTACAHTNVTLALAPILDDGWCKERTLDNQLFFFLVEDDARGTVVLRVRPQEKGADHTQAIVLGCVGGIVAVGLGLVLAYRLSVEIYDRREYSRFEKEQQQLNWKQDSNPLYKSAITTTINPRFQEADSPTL

IC50 [1] [nM] | IC50 [2] [nM] | SMILES
10 to 100 | > 1000 | Cn1c(=O)ccn(-c2cccc3c(C[C@H](NC(=O)c4c(F)cccc4F)C(=O)O)cccc23)c1=O [Compound 4]
10 to 100 | > 1000 | Cn1ccc(=O)n(-c2cccc3c(C[C@H](NC(=O)c4c(F)cccc4CN4CCC4)C(=O)O)cccc23)c1=O [Compound 7]
< 10 | 100 to 1000 | Cn1ccc(=O)n(-c2cccc3c(C[C@H](NC(=O)c4c(F)cc(NS(=O)(=O)C(F)(F)F)cc4F)C(=O)O)cccc23)c1=O [Compound 8]
< 10 | > 1000 | Cn1ccc(=O)n(-c2cccc3c(C[C@H](NC(=O)c4c(F)cc(NS(=O)(=O)c5ccccc5)cc4F)C(=O)O)cccc23)c1=O [Compound 9]
10 to 100 | 100 to 1000 | Cn1ccc(=O)n(-c2cccc3c(C[C@H](NC(=O)C4(C)CCOCC4)C(=O)O)cccc23)c1=O [Compound 10]
< 10 | 100 to 1000 | Cn1ccc(=O)n(-c2cccc3c(C[C@H](NC(=O)c4c(F)ccc(NS(=O)(=O)C(F)(F)F)c4F)C(=O)O)cccc23)c1=O [Compound 12]
< 10 | > 1000 | Cn1ccc(=O)n(-c2cccc3c(C[C@H](NC(=O)c4c(Cl)cccc4Cl)C(=O)O)cccc23)c1=O [Compound 14]
< 10 | 100 to 1000 | Cn1ccc(=O)n(-c2cccc3c(C[C@H](NC(=O)c4c(F)cc5nn(CC(F)(F)F)cc5c4F)C(=O)O)cccc23)c1=O [Compound 15]
< 10 | 100 to 1000 | Cn1ccc(=O)n(-c2cccc3c(C[C@H](NC(=O)c4c(F)cc5cnn(CC(F)(F)F)c5c4F)C(=O)O)cccc23)c1=O [Compound 16]
10 to 100 | > 1000 | Cc1nccc(F)c1C(=O)N[C@@H](Cc1cccc2c(-n3c(=O)ccn(C)c3=O)cccc12)C(=O)O [Compound 17]
10 to 100 | > 1000 | Cn1ccc(=O)n(-c2cccc3c(C[C@H](NC(=O)C4(C)CCN(CC(F)(F)F)CC4)C(=O)O)cccc23)c1=O [Compound 18]
< 10 | 100 to 1000 | Cn1ccc(=O)n(-c2cccc3c(C[C@H](NC(=O)c4c(F)cc(NCC(F)(F)F)cc4CN4CCOCC4)C(=O)O)cccc23)c1=O [Compound 19]
< 10 | 100 to 1000 | Cn1ccc(=O)n(-c2cccc3c(C[C@H](NC(=O)c4c(F)cc(N5CCOC[C@@H]5C(F)(F)F)cc4CN4CCOCC4)C(=O)O)cccc23)c1=O [Compound 20]
10 to 100 | > 1000 | CN1CCN(c2cc(F)c(C(=O)N[C@@H](Cc3cccc4c(-n5c(=O)ccn(C)c5=O)cccc34)C(=O)O)c(F)c2)[C@@H](C(F)(F)F)C1 [Compound 21]
< 10 | > 1000 | CN1CCN(Cc2cc(N3CCOC[C@@H]3C(F)(F)F)cc(F)c2C(=O)N[C@@H](Cc2cccc3c(-n4c(=O)ccn(C)c4=O)cccc23)C(=O)O)CC1 [Compound 22]
< 10 | > 1000 | O=C(N[C@@H](Cc1cccc2c(-c3nccc4ccncc34)cccc12)C(=O)O)c1c(F)cc(N2CCOC[C@@H]2C(F)(F)F)cc1F [Compound 23]
> 1000 | > 1000 | Cn1ccc(=O)n(-c2cccc3c(C[C@H](NC(=O)c4ccc(C(=O)NCCCCN)nc4)C(=O)O)cccc23)c1=O [Compound 24]
> 1000 | > 1000 | Cn1ccc(=O)n(-c2cccc3c(C[C@H](NC(=O)c4ccc(C(=O)N5CCc6ccccc6C5)nc4)C(=O)O)cccc23)c1=O [Compound 25]
10 to 100 | > 1000 | Cn1ccc(=O)n(-c2cccc3c(C[C@H](NC(=O)c4c(F)cc(C(F)(F)F)cc4F)C(=O)O)cccc23)c1=O [Compound 26]

IC50 [1] [nM] | IC50 [2] [nM] | SMILES
10 to 100 | > 1000 | Cn1ccc(=O)n(-c2cccc3c(C[C@H](NC(=O)c4c(F)cc5c(ccn5C)c4F)C(=O)O)cccc23)c1=O [Compound 27]
10 to 100 | > 1000 | COc1cc(F)c(C(=O)N[C@@H](Cc2cccc3c(-n4c(=O)ccn(C)c4=O)cccc23)C(=O)O)c(F)c1 [Compound 28]
10 to 100 | > 1000 | Cn1ccc(=O)n(-c2cccc3c(C[C@H](NC(=O)c4c(F)ccc(C(F)(F)F)c4F)C(=O)O)cccc23)c1=O [Compound 29]
10 to 100 | > 1000 | CC(C)Oc1cc(F)c(C(=O)N[C@@H](Cc2cccc3c(-n4c(=O)ccn(C)c4=O)cccc23)C(=O)O)c(F)c1 [Compound 30]
10 to 100 | 100 to 1000 | Cn1ccc(=O)n(-c2cccc3c(C[C@H](NC(=O)c4c(F)ccc(OC(F)F)c4F)C(=O)O)cccc23)c1=O [Compound 31]
> 1000 | > 1000 | Cn1ccc(=O)n(-c2cccc3c(C[C@H](NC(=O)c4c(F)cc(CN5CCC5)cc4F)C(=O)O)cccc23)c1=O [Compound 33]
100 to 1000 | > 1000 | Cn1ccc(=O)n(-c2cccc3c(C[C@H](NC(=O)c4c(F)cc(CN5CCOCC5)cc4F)C(=O)O)cccc23)c1=O [Compound 34]
> 1000 | > 1000 | Cn1ccc(=O)n(-c2cccc3c(C[C@H](NC(=O)C4CCN(CC(F)(F)F)CC4)C(=O)O)cccc23)c1=O [Compound 35]
> 1000 | > 1000 | CCN1CCC(C(=O)N[C@@H](Cc2cccc3c(-n4c(=O)ccn(C)c4=O)cccc23)C(=O)O)CC1 [Compound 36]
> 1000 | > 1000 | O=C(N[C@@H](Cc1cccc2c(-c3nccc4ccncc34)cccc12)C(=O)O)c1c(F)cc(CN2CCC2)cc1F [Compound 37]
100 to 1000 | > 1000 | O=C(N[C@@H](Cc1cccc2c(-c3nccc4ccncc34)cccc12)C(=O)O)c1c(F)cc(CN2CCOCC2)cc1F [Compound 38]
10 to 100 | > 1000 | O=C(N[C@@H](Cc1cccc2c(-c3nccc4ccncc34)cccc12)C(=O)O)c1c(F)cc(N2CCOC[C@@H]2CC(F)F)cc1F [Compound 39]
< 10 | 100 to 1000 | Cn1ccc(=O)n(-c2cccc3c(C[C@H](NC(=O)c4c(F)cc5c(c4F)CS(=O)(=O)N5)C(=O)O)cccc23)c1=O [Compound 43]
> 1000 | > 1000 | Cn1ccc(=O)n(-c2cccc3c(C[C@H](NC(=O)c4cc(C(=O)N5CCc6ccccc6C5)n(-c5ccccc5)n4)C(=O)O)cccc23)c1=O [Compound 44]
> 1000 | > 1000 | Cn1ccc(=O)n(-c2cccc3c(C[C@H](NC(=O)c4cc(C(=O)NCCCCN)n(-c5ccccc5)n4)C(=O)O)cccc23)c1=O [Compound 45]
< 10 | > 1000 | O=C(N[C@@H](Cc1cccc2c(-c3nccc4ccncc34)cccc12)C(=O)O)c1c(F)cc(N2CCOC[C@@H]2CC(F)F)cc1CN1CCOCC1 [Compound 46]
10 to 100 | > 1000 | O=C(N[C@@H](Cc1cccc2c(-c3cccc4ccncc34)cccc12)C(=O)O)c1c(F)cc(N2CCOC[C@@H]2C(F)(F)F)cc1F [Compound 47]
< 10 | 100 to 1000 | Cn1ccc(=O)n(-c2cccc3c(C[C@H](NC(=O)c4c(F)cc(N5CCOC[C@@H]5C(F)(F)F)cc4CN4CCCC4)C(=O)O)cccc23)c1=O [Compound 48]
> 1000 | > 1000 | Cn1ccc(=O)n(-c2cccc3c(C[C@H](NC(=O)c4ccc5cc(C(=O)N6CCC[C@@H]6c6ccccc6)ccc5c4)C(=O)O)cccc23)c1=O [Compound 49]

Source: US20250313535A1, “ALPHA 4 BETA 7 INTEGRIN MODULATORS AND USES THEREOF” (DICE MOLECULES SV, INC., priority 2022, published 2025)
